Laboratory results taken from US12486265B2, “2-aminopyrimidine compounds and pharmaceutical compositions and uses thereof” (Shanghai Zhimeng Biopharma, Inc., priority 2019, dated 2025).
Where two headings read alike, the source gives them in different places.

How the values were obtained:
human TLR7 = molecular target: T1, human TLR7 (Homo sapiens, UniProt Q9NYK1); test: hTLR7 receptor binding activity in vitro (HEK-Blue hTLR7 SEAP reporter); format: cell-based; conditions: HEK-Blue hTLR7 cells, 24 hours, SEAP OD650
T1 construct: host or cells: HEK-Blue hTLR7 (HEK293-derived)
T1 sequence (Q9NYK1 27-1049): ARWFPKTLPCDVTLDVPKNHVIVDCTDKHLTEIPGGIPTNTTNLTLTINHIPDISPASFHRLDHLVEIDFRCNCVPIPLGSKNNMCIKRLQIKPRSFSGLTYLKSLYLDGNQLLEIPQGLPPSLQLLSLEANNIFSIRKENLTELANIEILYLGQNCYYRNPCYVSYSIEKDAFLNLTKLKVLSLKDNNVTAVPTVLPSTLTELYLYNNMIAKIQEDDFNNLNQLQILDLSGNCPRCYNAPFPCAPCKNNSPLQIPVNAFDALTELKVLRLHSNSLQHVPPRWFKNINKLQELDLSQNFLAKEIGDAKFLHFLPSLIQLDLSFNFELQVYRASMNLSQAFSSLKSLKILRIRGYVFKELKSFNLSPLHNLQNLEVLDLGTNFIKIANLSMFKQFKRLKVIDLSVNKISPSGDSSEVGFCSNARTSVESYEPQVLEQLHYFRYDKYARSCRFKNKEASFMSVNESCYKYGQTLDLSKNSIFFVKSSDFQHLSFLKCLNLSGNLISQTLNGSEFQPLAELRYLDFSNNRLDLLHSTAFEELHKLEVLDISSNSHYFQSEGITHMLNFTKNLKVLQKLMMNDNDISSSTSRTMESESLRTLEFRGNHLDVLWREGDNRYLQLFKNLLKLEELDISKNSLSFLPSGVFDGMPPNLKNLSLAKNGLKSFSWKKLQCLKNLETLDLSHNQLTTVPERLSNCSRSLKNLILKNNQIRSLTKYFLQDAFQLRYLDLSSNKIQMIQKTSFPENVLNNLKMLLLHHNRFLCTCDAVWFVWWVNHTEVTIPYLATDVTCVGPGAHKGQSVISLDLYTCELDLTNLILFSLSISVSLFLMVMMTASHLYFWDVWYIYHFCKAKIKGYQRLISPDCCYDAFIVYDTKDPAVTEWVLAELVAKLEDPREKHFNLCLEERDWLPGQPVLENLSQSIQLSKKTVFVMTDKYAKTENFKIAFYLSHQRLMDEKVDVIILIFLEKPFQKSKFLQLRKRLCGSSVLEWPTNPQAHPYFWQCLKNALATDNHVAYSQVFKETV
Method: (§1) The ability of the compounds of the present invention to activate TLR7 and TLR8 respectively was evaluated by using receptor binding experiments in vitro.
(§2) HEK-Blue™ hTLR7 (article number: hkb-htlr7) and HEK-Blue™ hTLR8 (article number: hkb-htlr8) cells were purchased from InvivoGen company. HEK-Blue™ hTLR7/8 cells can indicate the activation of TLR7/8 by detecting the activation level of NF-κB signaling pathway. HEK-Blue™ hTLR7/8 cells are derived from human embryonic kidney 293 cells, stably expressing human TLR7 or human TLR8, respectively, and can induce expression of secretory alkaline phosphatase (SEAP) to report gene system. The expression of SEAP reporter gene is regulated by IFN-β simplified promoter, which is composed of 5 NF-κB binding sequences and AP-1 binding sequences. Therefore, when TLR7/8 is activated in these two cells, NF-κB and AP-1 will be activated, and SEAP expression and extracellular secretion will be induced. By detecting the activity of SEAP outside the cell, the activation level of TLR7/8 can be indicated.
(§3) • (1) The compound was added to the cell culture plate after a 3-fold gradient dilution, with a total of 10 concentrations, with two duplicates wells for each concentration.
(§4) [drawing 45] per well; • (2) HEK-Blue™ hTLR7/8 cells were digested separately, counted, and the cells at 5.0×10^4 cells per well were added to a 96-well cell culture plate containing compounds; (3) The cells added with the compound were placed in a 5% CO2 incubator at 37° C. for 24 hours; • (4) Compound activity detection: took 20 µl/well cell culture supernatant and added it to 96-well plate containing 180 μl QUANTI-BLUE™ reagent. Incubated at 37° C. for one hour, and the optical density absorption value (OD650) at 650 nm was detected with a multifunctional microplate reader; • (5) Cell activity detection: operated according to the Celltiter-Glo instructions, and the chemiluminescence signal (RLU) was detected by a multifunctional microplate reader Envision; • (6) Data analysis: • Compound activity: OD650 value was analyzed by GraphPad Prism software, and the dose effect curve of the compound was fitted to calculate the EC50 value of the compound.

human TLR8 = molecular target: T2, human TLR8 (Homo sapiens, UniProt Q9NR97); test: hTLR8 receptor binding activity in vitro (HEK-Blue hTLR8 SEAP reporter); format: cell-based; conditions: for EC50: HEK-Blue hTLR8 cells, 24 hours, SEAP OD650; for selectivity for TLR8 activation: TLR8 versus TLR7, compared with compound X
T2 construct: host or cells: HEK-Blue hTLR8 (HEK293-derived)
T2 sequence (Q9NR97 27-1041): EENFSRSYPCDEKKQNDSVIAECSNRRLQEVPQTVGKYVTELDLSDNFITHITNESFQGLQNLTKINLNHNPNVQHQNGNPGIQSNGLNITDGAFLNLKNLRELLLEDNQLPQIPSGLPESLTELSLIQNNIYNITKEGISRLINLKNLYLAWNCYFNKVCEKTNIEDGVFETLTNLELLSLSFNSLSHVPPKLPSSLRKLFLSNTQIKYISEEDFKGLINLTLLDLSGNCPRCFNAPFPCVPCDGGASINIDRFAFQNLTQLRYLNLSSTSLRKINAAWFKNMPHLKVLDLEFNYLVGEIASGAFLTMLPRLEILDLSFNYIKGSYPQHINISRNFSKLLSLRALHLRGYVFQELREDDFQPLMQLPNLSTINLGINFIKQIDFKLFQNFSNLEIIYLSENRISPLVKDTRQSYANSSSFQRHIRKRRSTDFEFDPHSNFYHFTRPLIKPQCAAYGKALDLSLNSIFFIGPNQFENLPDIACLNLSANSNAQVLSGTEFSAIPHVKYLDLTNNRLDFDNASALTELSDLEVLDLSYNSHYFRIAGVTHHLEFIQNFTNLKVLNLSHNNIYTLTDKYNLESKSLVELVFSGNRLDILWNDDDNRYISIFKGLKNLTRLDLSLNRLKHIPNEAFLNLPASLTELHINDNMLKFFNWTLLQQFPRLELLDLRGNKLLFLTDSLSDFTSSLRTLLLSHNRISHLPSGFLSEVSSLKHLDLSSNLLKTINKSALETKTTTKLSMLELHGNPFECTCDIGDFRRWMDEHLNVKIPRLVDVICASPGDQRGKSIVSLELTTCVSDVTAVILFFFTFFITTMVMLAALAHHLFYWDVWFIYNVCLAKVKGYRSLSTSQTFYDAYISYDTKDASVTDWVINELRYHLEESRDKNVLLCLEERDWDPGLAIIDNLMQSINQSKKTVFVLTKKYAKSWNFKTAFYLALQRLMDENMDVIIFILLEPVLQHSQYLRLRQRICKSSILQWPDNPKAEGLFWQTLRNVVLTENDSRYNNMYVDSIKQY
Method: as §1, §2, §3, §4

[1] = Cell activity detection (Celltiter-Glo) in HEK-Blue hTLR8 cells; format: cell-based; conditions: human
Method: as §4
(§5) Cell activity detection: cell activity was analyzed by GraphPad Prism software, and the dose effect curve of the compound was fitted to calculate the CC50 value of the compound to the cell.

IL-12p40 in human PBMC = test: IL-12p40 induction in human PBMC (ELISA); format: cell-based
Excerpt: The human peripheral blood mononuclear cell (PBMC) experiment and the IL-12p40 ELISA detection method are used to detect the IL-12p40 inducing activity of the compound of the present invention in human PBMC.
Toll-like receptors (TLRs) are a series of switches that regulate the human immune system and occupy an important position in both innate (non-specific) and specific immunity. TLR8 is mainly expressed in monocytes, macrophages and myeloid dendritic cells. TLR8 is expressed on the Endosome intima of the cell and recognizes single-stranded RNA with high GU (guanylate/uridonic acid) content. After TLR8 signaling pathway is activated, it will activate the secretion of a series of downstream cytokines (IL-12, TNF-alpha, IFN-gamma, etc.), causing antiviral immune response. In this experiment, the compound was used to stimulate human PBMC, and the level of IL-12p40 protein in the culture supernatant was detected to evaluate the activation level of the compound on the TLR8 signaling pathway.
• (1) The compound was added to the cell plate after a 3-fold gradient dilution, with a total of 8 concentrations, and two duplicate wells for each concentration.
(§6) Resuspended, cell number was counted, and the cell suspension was adjusted to 2.5×10^6 cells/ml with the culture medium.

[2] = Cell activity detection (Celltiter-Glo) in human PBMC; format: cell-based
Method: as §6, §5

[3] = Pharmacokinetic study in male SD rats; format: in vivo; conditions: rat, plasma
Method: Pharmacokinetic study: 6 healthy male SD rats (SPF grade) were divided into 2 groups and 3 rats/group. […] Within half an hour, plasma was taken after centrifugation (6000 rpm, 8 minutes, 4° C.) and frozen at −20° C. for later use. Experimental results: According to the obtained blood drug concentration data, the non-compartmental model of WinNonlin® 8.1 software (Certara, USA) was used to calculate the pharmacokinetic parameters after administration.

[4] = Liver-blood ratio study in male SD rats; format: in vivo; conditions: rat, liver / plasma, single oral administration; for Kp at 1 h: time point 1 h; for Kp at 4 h: time point 4 h
Method: Liver-blood ratio study: 4 healthy male SD rats (SPF grade) were divided into 2 groups and 2 rats/group. After fasting overnight, compound A and compound X were administrated orally respectively. Blood was taken through cardiac puncture at time points 1 and 4 hours, at least 0.5 mL of whole blood was collected to EDTA-K2 anticoagulant tube, and plasma was taken after centrifugation (6000 rpm, 8 minutes, 4° C.) within half an hour and frozen at −20° C. for later use. At the same time, liver tissue was collected, rinsed with normal saline, then blotted dry with absorbent paper, weighed, and frozen at −20° C. for later use.

[5] = 24 hours, Celltiter-Glo, read-out: CC50
[6] = read-out: cytotoxic CC50 on human PBMC
[7] = human PBMC, 24 hours, ELISA OD450, read-out: IL-12p40 EC50

CCCC[C@](C)(CNC(C)=O)Nc1nc(N)nc2cc(C(C)=O)cnc12 [Compound V]
EC50 (human TLR7): > 33 µM
EC50 (human TLR8): 0.049 µM
selectivity for TLR8 activation (human TLR8): higher selectivity for TLR8 activation than compound X
CC50 at 24 h [1]: > 33 µM

CCCC[C@](C)(CNC(C)=O)Nc1nc(N)nc2cc(C(=O)N(C)C)cnc12 [Compound A]
EC50 (human TLR7): > 33 µM
CC50 at 24 h [1]: > 33 µM
EC50 (IL-12p40 in human PBMC; Homo sapiens, PBMC, 24 h, read-out: IL-12p40 EC50): 0.031 µM
EC50 (IL-12p40 in human PBMC; Homo sapiens, PBMC, read-out: induced activity EC50 on IL-12p40): 0.031 µM
CC50 at 24 h [2, 5]: > 33 µM
CC50 at 24 h [2, 6]: > 10 µM
AUC(0-inf) ([3]; IV 5 mg/kg): 0.877 µg·h/mL
AUC(0-t) ([3]; IV 5 mg/kg): 0.876 µg·h/mL
Cmax ([3]; IV 5 mg/kg): 1.83 µg/mL
MRT last ([3]; IV 5 mg/kg): 22.8 min
Tmax ([3]; IV 5 mg/kg): 4.98 min
clearance ([3]; IV 5 mg/kg): 5.7 L/h/kg
half-life ([3]; IV 5 mg/kg): 40.8 min
Vd ([3]; IV 5 mg/kg, read-out: Vz): 5.59 L/kg
AUC(0-inf) ([3]; PO 50 mg/kg): 1.26 µg·h/mL
AUC(0-t) ([3]; PO 50 mg/kg): 1.25 µg·h/mL
Cmax ([3]; PO 50 mg/kg): 1.17 µg/mL
MRT last ([3]; PO 50 mg/kg): 116 min
Tmax ([3]; PO 50 mg/kg): 25.2 min
bioavailability ([3]; PO 50 mg/kg): 14.2%
half-life ([3]; PO 50 mg/kg): 345 min
Kp at 1 h [4]: 12.3
Kp at 4 h [4]: 34.4

CCCC[C@](C)(CNC(C)=O)Nc1nc(N)nc2cc(CC)cnc12 [Compound X, reference compound]
EC50 (human TLR7): 11.9 µM
EC50 (human TLR8): 0.04 µM
CC50 at 24 h [1]: > 33 µM
Kp at 1 h [4]: 6.9
Kp at 4 h [4]: 23.6

CCOCc1nc2c(N)nc3ccccc3c2n1CC(C)(C)O [Compound R848, reference compound]
CC50 at 24 h [1]: > 71 µM
EC50 (IL-12p40 in human PBMC; [7]): 0.208 µM
CC50 at 24 h [2, 5]: > 71 µM

CCCC[C@](C)(CNC(C)=O)Nc1nc(N)nc2cc(NC3CC3)cnc12 [Compound B]
EC50 (human TLR7): 28.4 µM
EC50 (human TLR8): 0.029 µM
selectivity for TLR8 activation (human TLR8): higher selectivity for TLR8 activation than compound X
CC50 at 24 h [1]: > 33 µM
EC50 (IL-12p40 in human PBMC; [7]): 0.02 µM
EC50 (IL-12p40 in human PBMC; human PBMC, read-out: induced activity EC50 on IL-12p40): 0.02 µM
CC50 at 24 h [2, 5]: 28.9 µM
CC50 at 24 h [2, 6]: > 10 µM

CCCC[C@](C)(CNC(C)=O)Nc1nc(N)nc2cc(C(=O)N3CC4(CCN(c5ccccc5)CC4)C3)cnc12 [Compound T]
EC50 (human TLR7): > 33 µM
EC50 (human TLR8): 0.207 µM
CC50 at 24 h [1]: > 33 µM
